Experimental data: US8192962B2, “Processes for detecting toxic substances” (Daikin Industries, Ltd., priority 2001, dated 2012)

Test system: Unknown protein yeast genes
Test: DNA chip mRNA expression in yeast, unknown protein yeast genes (Table 1)
Type: cell-based, Saccharomyces cerevisiae S288C
Method in brief: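 S. cerevisiae S288C grown at 25° C in YPD were exposed in log phase for two hours to one toxic chemical at a growth-inhibiting, non-lethal concentration; untreated cells served as control. Poly(A) mRNA was reverse-transcribed with Cy3/Cy5-dUTP and hybridized to a whole-genome yeast DNA chip at 65° C for over 12 hours; values are fluorescence ratios versus untreated.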

Compound: Oc1cc(Cl)c(Cl)cc1Cl [(6), 2,4,5-trichlorophenol]
- The level of expressed mRNA in the presence of chemical substance/The level of expressed mRNA in the absence of chemical substance (yeast gene YKL086W, incubated two hours with chemical substance): 1.0
- The level of expressed mRNA in the presence of chemical substance/The level of expressed mRNA in the absence of chemical substance (yeast gene YKL151C, incubated two hours with chemical substance): 2.0
- The level of expressed mRNA in the presence of chemical substance/The level of expressed mRNA in the absence of chemical substance (yeast gene YKL153W, incubated two hours with chemical substance): 2.9
- The level of expressed mRNA in the presence of chemical substance/The level of expressed mRNA in the absence of chemical substance (yeast gene YKL195W, incubated two hours with chemical substance): 2.5
- The level of expressed mRNA in the presence of chemical substance/The level of expressed mRNA in the absence of chemical substance (yeast gene YKR018C): 1.7
- The level of expressed mRNA in the presence of chemical substance/The level of expressed mRNA in the absence of chemical substance (yeast gene YKR049C): 3.0
- The level of expressed mRNA in the presence of chemical substance/The level of expressed mRNA in the absence of chemical substance (yeast gene YKR091W, incubated two hours with chemical substance): 1.0
- The level of expressed mRNA in the presence of chemical substance/The level of expressed mRNA in the absence of chemical substance (yeast gene YLR054C, incubated two hours with chemical substance): 1.2
- The level of expressed mRNA in the presence of chemical substance/The level of expressed mRNA in the absence of chemical substance (yeast gene YLR149C, incubated two hours with chemical substance): 1.4
- The level of expressed mRNA in the presence of chemical substance/The level of expressed mRNA in the absence of chemical substance (yeast gene YLR152C, incubated two hours with chemical substance): 2.1
- The level of expressed mRNA in the presence of chemical substance/The level of expressed mRNA in the absence of chemical substance (yeast gene YLR194C, incubated two hours with chemical substance): 0.9
- The level of expressed mRNA in the presence of chemical substance/The level of expressed mRNA in the absence of chemical substance (yeast gene YLR324W, incubated two hours with chemical substance): 1.2
- The level of expressed mRNA in the presence of chemical substance/The level of expressed mRNA in the absence of chemical substance (yeast gene YLR328W): 4.8
- The level of expressed mRNA in the presence of chemical substance/The level of expressed mRNA in the absence of chemical substance (yeast gene YLR350W, incubated two hours with chemical substance): 1.6
- The level of expressed mRNA in the presence of chemical substance/The level of expressed mRNA in the absence of chemical substance (yeast gene YLR387C, incubated two hours with chemical substance): 1.9
- The level of expressed mRNA in the presence of chemical substance/The level of expressed mRNA in the absence of chemical substance (yeast gene YLR460C): 0.6
- The level of expressed mRNA in the presence of chemical substance/The level of expressed mRNA in the absence of chemical substance (yeast gene YML117W, incubated two hours with chemical substance): 1.0
- The level of expressed mRNA in the presence of chemical substance/The level of expressed mRNA in the absence of chemical substance (yeast gene YMR009W, incubated two hours with chemical substance): 1.2
- The level of expressed mRNA in the presence of chemical substance/The level of expressed mRNA in the absence of chemical substance (yeast gene YMR040W): 2.8
- The level of expressed mRNA in the presence of chemical substance/The level of expressed mRNA in the absence of chemical substance (yeast gene YMR067C, incubated two hours with chemical substance): 1.4
- The level of expressed mRNA in the presence of chemical substance/The level of expressed mRNA in the absence of chemical substance (yeast gene YMR090W): 3.8
- The level of expressed mRNA in the presence of chemical substance/The level of expressed mRNA in the absence of chemical substance (yeast gene YMR095C, incubated two hours with chemical substance): 0.7
- The level of expressed mRNA in the presence of chemical substance/The level of expressed mRNA in the absence of chemical substance (yeast gene YMR097C, incubated two hours with chemical substance): 1.2
- The level of expressed mRNA in the presence of chemical substance/The level of expressed mRNA in the absence of chemical substance (yeast gene YMR102C, incubated two hours with chemical substance): 6.3
- The level of expressed mRNA in the presence of chemical substance/The level of expressed mRNA in the absence of chemical substance (yeast gene YMR107W, incubated two hours with chemical substance): 1.0
- The level of expressed mRNA in the presence of chemical substance/The level of expressed mRNA in the absence of chemical substance (yeast gene YMR180C, incubated two hours with chemical substance): 2.4
- The level of expressed mRNA in the presence of chemical substance/The level of expressed mRNA in the absence of chemical substance (yeast gene YMR184W, incubated two hours with chemical substance): 0.9
- The level of expressed mRNA in the presence of chemical substance/The level of expressed mRNA in the absence of chemical substance (yeast gene YMR191W, incubated two hours with chemical substance): 1.0
- The level of expressed mRNA in the presence of chemical substance/The level of expressed mRNA in the absence of chemical substance (yeast gene YMR295C, incubated two hours with chemical substance): 1.9
- The level of expressed mRNA in the presence of chemical substance/The level of expressed mRNA in the absence of chemical substance (yeast gene YMR316W, incubated two hours with chemical substance): 0.7
- The level of expressed mRNA in the presence of chemical substance/The level of expressed mRNA in the absence of chemical substance (yeast gene YNL044W, incubated two hours with chemical substance): 0.9
- The level of expressed mRNA in the presence of chemical substance/The level of expressed mRNA in the absence of chemical substance (yeast gene YNL074C, incubated two hours with chemical substance): 1.7
- The level of expressed mRNA in the presence of chemical substance/The level of expressed mRNA in the absence of chemical substance (yeast gene YNL092W, incubated two hours with chemical substance): 1.2
- The level of expressed mRNA in the presence of chemical substance/The level of expressed mRNA in the absence of chemical substance (yeast gene YNL115C, incubated two hours with chemical substance): 9.1
- The level of expressed mRNA in the presence of chemical substance/The level of expressed mRNA in the absence of chemical substance (yeast gene YNL156C, incubated two hours with chemical substance): 1.3
- The level of expressed mRNA in the presence of chemical substance/The level of expressed mRNA in the absence of chemical substance (yeast gene YNL234W, incubated two hours with chemical substance): 1.3
- The level of expressed mRNA in the presence of chemical substance/The level of expressed mRNA in the absence of chemical substance (yeast gene YNL281W, incubated two hours with chemical substance): 0.9
- The level of expressed mRNA in the presence of chemical substance/The level of expressed mRNA in the absence of chemical substance (yeast gene YNL305C, incubated two hours with chemical substance): 1.1
- The level of expressed mRNA in the presence of chemical substance/The level of expressed mRNA in the absence of chemical substance (yeast gene YNR068C, incubated two hours with chemical substance): 0.4
- The level of expressed mRNA in the presence of chemical substance/The level of expressed mRNA in the absence of chemical substance (yeast gene YOL032W, incubated two hours with chemical substance): 2.1
- The level of expressed mRNA in the presence of chemical substance/The level of expressed mRNA in the absence of chemical substance (yeast gene YOL036W, incubated two hours with chemical substance): 1.2
- The level of expressed mRNA in the presence of chemical substance/The level of expressed mRNA in the absence of chemical substance (yeast gene YOL047C, incubated two hours with chemical substance): 1.5
- The level of expressed mRNA in the presence of chemical substance/The level of expressed mRNA in the absence of chemical substance (yeast gene YOL071W, incubated two hours with chemical substance): 1.7
- The level of expressed mRNA in the presence of chemical substance/The level of expressed mRNA in the absence of chemical substance (yeast gene YOL082W, incubated two hours with chemical substance): 1.8
- The level of expressed mRNA in the presence of chemical substance/The level of expressed mRNA in the absence of chemical substance (yeast gene YOL083W, incubated two hours with chemical substance): 4.5
- The level of expressed mRNA in the presence of chemical substance/The level of expressed mRNA in the absence of chemical substance (yeast gene YOL117W, incubated two hours with chemical substance): 2.0
- The level of expressed mRNA in the presence of chemical substance/The level of expressed mRNA in the absence of chemical substance (yeast gene YOL131W, incubated two hours with chemical substance): 1.1
- The level of expressed mRNA in the presence of chemical substance/The level of expressed mRNA in the absence of chemical substance (yeast gene YOL150C): 5.2
- The level of expressed mRNA in the presence of chemical substance/The level of expressed mRNA in the absence of chemical substance (yeast gene YOL162W, incubated two hours with chemical substance): 1.2
- The level of expressed mRNA in the presence of chemical substance/The level of expressed mRNA in the absence of chemical substance (yeast gene YOR019W, incubated two hours with chemical substance): 1.3
- The level of expressed mRNA in the presence of chemical substance/The level of expressed mRNA in the absence of chemical substance (yeast gene YOR197W, incubated two hours with chemical substance): 1.3
- The level of expressed mRNA in the presence of chemical substance/The level of expressed mRNA in the absence of chemical substance (yeast gene YPL087W, incubated two hours with chemical substance): 4.3
- The level of expressed mRNA in the presence of chemical substance/The level of expressed mRNA in the absence of chemical substance (yeast gene YPL196W, incubated two hours with chemical substance): 2.0
- The level of expressed mRNA in the presence of chemical substance/The level of expressed mRNA in the absence of chemical substance (yeast gene YPL206C, incubated two hours with chemical substance): 1.8
- The level of expressed mRNA in the presence of chemical substance/The level of expressed mRNA in the absence of chemical substance (yeast gene YPL222W, incubated two hours with chemical substance): 2.2
- The level of expressed mRNA in the presence of chemical substance/The level of expressed mRNA in the absence of chemical substance (yeast gene YPR023C, incubated two hours with chemical substance): 1.4
- The level of expressed mRNA in the presence of chemical substance/The level of expressed mRNA in the absence of chemical substance (yeast gene YPR151C, incubated two hours with chemical substance): 1.6
